Laboratory results: patent US20240180859A1, “COMPOSITIONS AND METHODS FOR IMMUNE-MEDIATED INFLAMMATORY DISEASES” (Thetis Pharmaceuticals LLC, priority 2022, published 2024)
Blank lines part the entries; values can stand above or below the compound they belong to.

Key:
[1] = system: polymorphonuclear leukocyte (PMN) recruitment; settings: equimolar dose; cited from earlier work
[2] = system: CD4+ and CD8+ cells in the liver; settings: concanavalin A-induced murine model; cited from earlier work
[3] = PK studies of RvE1-Na (subcutaneous, IV, oral), plasma and lung tissue; type: in vivo, Balb/c mice; settings: 0.25-24 hours
Experimental: (§1) In the subcutaneous PK study, sixty-nine (69) C57BL/6J mice were administered 100 or 300 ug/kg doses of RvE1-Mg-Lys via subcutaneous injection. Mice were sacrificed and plasma was drawn at the following timepoints: baseline, 5, 15, 30 min, 1, 2, 4 and 8 hours (n=5 mice per timepoint). In the IV and oral PK studies, one-hundred eighty (180) Balb/c mice were administered RvE1-Na at 1 or 10 mg/kg via subcutaneous injection, IV injection, oral gavage (n=6 mice per timepoint). Plasma and lung tissue were assayed at the following timepoints: 0.25, 0.5, 1, 2, 6, 10 and 24 hours. […] Without being bound by any theory, the surprising efficacy of LTD dosing of resolvins in the cancer model systems described here may be the result of durable effects on the tumor microenvironment including changes in immune cell phenotype, vascularization, stromal phenotype, and antigen presentation, as well as durable effects on the T-cell compartment such as T-cell priming and increased tumor-infiltrating lymphocytes.

[4] = Subcutaneous PK study of RvE1-Mg-Lys; type: in vivo, C57BL/6J mice; settings: 100 or 300 ug/kg subcutaneous injection; baseline to 8 hours
Experimental: as §1

Panc2-H7 cells = assay: Panc2-H7 model of pancreatic cancer, subcutaneous tumors; type: in vivo, C57BL/6J male mice; settings: SC
Experimental: (§2) A representative compound of Formula IV, bis RvE1 magnesium di-lysinate (Compound 1), was tested for efficacy in several preclinical mouse models including the Panc2-H7 model of pancreatic cancer, and the MC38 model of colorectal cancer. These models are well established, highly tumorigenic syngeneic models in which murine cancer cell lines are injected subcutaneously (SC) into the dorsum of C57BL/6J mice. If left untreated, these tumors grow rapidly and lead to death or euthanasia, per protocol. As detailed below in Examples 1-4 and the accompanying figures, bis RvE1 Mg-di-lysinate (Compound 1) was unexpectedly effective as an anti-cancer agent in each of these model systems when administered in a less than daily (LTD) dosing regimen. […] Without being bound by any theory, the surprising efficacy of LTD dosing of resolvins in the model systems described here may be the result of durable effects on the inflammatory phenotype of the tumor microenvironment including changes in immune cell phenotype, vascularization, stromal phenotype, and antigen presentation, as well as durable effects on the T-cell compartment such as T-cell priming and increased tumor-infiltrating lymphocytes.
Based on the previous findings in the MC38 colorectal cancer model with less than daily (LTD) dosing, a study in the Panc2-H7 model was conducted to assess the efficacy of LTD dosing of bis RvE1 Mg-di-lysinate in a different tumor model. A total of forty (40) C57BL/6J male mice were injected subcutaneously with 1×10e6 living Panc2-H7 cells. Once tumors reached 160-320 mm^3 in size, the mice were randomized (n=8 per group) to treatment with vehicle or SC injection with bis RvE1 Mg-di-lysinate at 30 ug/kg and 300 ug/kg (QD, Q7D).

MC-38 cells = assay: MC38 model of colorectal cancer, subcutaneous tumors; type: in vivo, C57BL/6J male mice; settings: 300 ug/kg, SC, P<0.05 vs placebo
Experimental: as §2, with “lymphocytes. […]” for “lymphocytes.”

subcutaneous KPC tumors = assay: RNAseq cell enrichment analysis of tumor samples; type: in vivo, mice; settings: Q6D treatment, Day 26, compared to placebo
Experimental: RNAseq analysis was performed on tumor samples from mice with subcutaneous KPC tumors sacrificed on Day 26 following treatment (Q6D) with bis RvE1 Mg-di-lysinate (Compound 1) compared to placebo. […] Darker color indicates increased gene expression, for various immune cells and other cells, as listed across the top of the heatmap. The boxed cells shown in FIG. 4 indicate an increase in markers of monocytes and DC cell subset (cDCs, pDCs, and iDCs) and markers of NK, CD8+ T cells, Th1 cells, and memory T cells (CD8+ and CD4+) with Compound 1 treatment. […] Namely, these unexpected results may be due to durable effects on the tumor microenvironment including changes in immune cell phenotype and the T-cell compartment such as T-cell priming and increased tumor-infiltrating lymphocytes.

Structure (SMILES): CC[C@@H](O)/C=C/C=C\C[C@@H](O)/C=C/C=C/C=C\[C@@H](O)CCCC(=O)O [RvE1, 5S,12R,18R-trihydroxy-6Z,8E,10E,14Z,16E-eicosapentaenoic acid]
activity in zymosan-induced peritonitis (PMN recruitment) [1]: potently reduced
levels of CD4+ and CD8+ cells in the liver [2]: markedly downregulated

plasma and lung tissue levels of RvE1 over time ([3]; 1 or 10 mg/kg IV injection): rapid depletion
plasma and lung tissue levels of RvE1 over time ([3]; 1 or 10 mg/kg oral gavage): rapid depletion
plasma and lung tissue levels of RvE1 over time ([3]; 1 or 10 mg/kg subcutaneous injection): rapid depletion
Structure (SMILES): CC[C@@H](O)/C=C/C=C\C[C@@H](O)/C=C/C=C/C=C\[C@@H](O)CCCC(=O)[O-].[Na+] [RvE1-Na]

plasma levels of RvE1 over time [4]: rapid depletion
Structure (SMILES): CC[C@@H](O)/C=C/C=C\C[C@@H](O)/C=C/C=C/C=C\[C@@H](O)CCCC(=O)O [Compound 1, bis RvE1 Mg-di-lysinate]
tumor volume (Day 20 vs Day 0), inhibition relative to placebo control (Panc2-H7 cells; 30 ug/kg, Q7D): demonstrated inhibition relative to placebo control
tumor volume (Day 20 vs Day 0), inhibition relative to placebo control (Panc2-H7 cells; 30 ug/kg, QD): demonstrated inhibition relative to placebo control
tumor volume (Day 20 vs Day 0), inhibition relative to placebo control (Panc2-H7 cells; 300 ug/kg, Q7D, P<0.05 vs placebo control): greatest inhibition
tumor volume (Day 20 vs Day 0), inhibition relative to placebo control (Panc2-H7 cells; 300 ug/kg, QD): demonstrated inhibition relative to placebo control
tumor volume (Day 15 vs Day 0), efficacy as a single agent vs placebo (MC-38 cells; Q3D): effective as a single agent
tumor volume (Day 15 vs Day 0), efficacy as a single agent vs placebo (MC-38 cells; QD): effective as a single agent
markers of NK, CD8+ T cells, Th1 cells, and memory T cells (CD8+ and CD4+), gene expression (subcutaneous KPC tumors): increase
markers of monocytes and DC cell subset (cDCs, pDCs, and iDCs), gene expression (subcutaneous KPC tumors): increase

Structure (SMILES): CCC(=O)/C=C/C=C\C[C@@H](O)/C=C/C=C/C=C\[C@@H](O)CCCC(=O)O [Compound 18-oxo-RvE1, 18-oxo-RvE1]
activity in zymosan-induced peritonitis (PMN recruitment) [1]: devoid of activity

Structure (SMILES): CC/C=C\C[C@H](O)/C=C/C=C\C=C\C=C\[C@@H](O)[C@@H](O)C/C=C\CCC(=O)O [RvD1, 7S,8R,17S-trihydroxy-4Z,9E,11E,13Z,15E,19Z-docosahexaenoic acid]
levels of CD4+ and CD8+ cells in the liver [2]: markedly downregulated
